# Tests used:
# [1] = system: second order arterioles of the hamster cheek pouch microcirculation; assay: Hamster cheek pouch microcirculation, arteriolar diameter during suffusion; format: in vivo; details: native VIP alone, suffusion
# Description: According to this example, the vasorelaxant effects of VIP in a SSM were determined according to the following method. Specifically, adult male golden Syrian hamsters were purchased from Sasco (Omaha, Nebr.). Adult male hamsters with spontaneous hypertension and their normotensive controls were purchased from the Canadian Hybrid Farms (Halls Harbour, NS, Canada). Hypertensive animals have been identified after cross-breeding of hamsters with hereditary cardiomyopathy and normal golden Syrian hamsters. These albino animals have previously been used in our laboratory (Rubinstein et al., Biochem. Biophys. Res. Commun. 183:1117-1123 (1992); Artwohl et al., FASEB J. 10:A629 (1996)). Animals were anesthetized with pentobarbital sodium (6 mg/100 g body weight, i.p.). A tracheotomy was performed to facilitate spontaneous breathing. A femoral vein was cannulated to inject supplemental anesthesia during the experiment (2-4 mg/100 g body weight/h). Body temperature was maintained constant (37-38° C.) and monitored via heating pad and a feed back controller throughout the experiment.
# The bioactivity of the VIP in SSM by diffusing it in situ was determined by visualization of the microcirculation of the hamster cheek pouch. The microcirculation of the cheek pouch was visualized locally by a method previously developed in our laboratory (Suzuki et al., Life Sci. 57:1451-1457 (1995); Suzuki et al., Am. J. Physiol. 271:R393-R397 (1996); and Suzuki et al., Am. J. Physiol. 271:H282-H287 (1996)). Briefly, the left cheek pouch was spread over a small plastic baseplate, and an incision was made in the outer skin to expose the cheek pouch membrane. The connective avascular tissue layer was removed, and a plastic chamber was placed over the baseplate and secured in place by suturing the skin around the upper chamber. This forms a triple-layered complex: the baseplate, the exposed cheek pouch membrane, and the upper chamber. After these initial procedures, the hamster is transferred to a heated microscope stage. The chamber was connected to a reservoir containing warmed bicarbonate buffer (37-38° C.) that allowed continuous suffusion of the cheek pouch. The buffer was bubbled continuously with 95% N2-5% CO2 (pH 7.4). […]
# The cheek pouch microcirculation was epi-illuminated with a 100-W mercury light source and viewed through a microscope (Nikon, Tokyo, Japan) at a magnification of ×40. […] The inner-wall diameter of second order arterioles ([…]), which modulated vascular resistance in the cheek pouch, (Raud, Acta Physiol. Scand. (Suppl.) 578:1-58 (1989); Suzuki et al., Life Sci. 57:1451-1457 (1995); Suzuki et al., Am. J. Physiol. 271:R393-R397 (1996)) was measured from the video display of the microscope image using a videomicrometer (VIA 100; Boeckeler Instruments, Tucson, Ariz.). […]
# [2] = system: mice with collagen-induced arthritis (CIA); assay: Collagen induced arthritis (CIA) in mice; format: in vivo; details: for hind paw thickness (PT) increase: tail vein
# Description: SSM were prepared as described above in previous examples and by Onyuksel et al. (1999). VIP (1.0 nmol) was incubated with SSM for 2 h at 25° C. Size of VIP-SSM was determined by dynamic light-scattering. The effects of dilution on VIP-SSM were determined by size exclusion chromatography (SEC). Effects of VIP-SSM (1.0 nmol) and VIP in buffer (1.0 nmol and 5.0 nmol) were evaluated in mice with CIA treated on day 22 or 34 post-CIA induction. Clinical arthritis score (CAS) and hind paw thickness (PT) were recorded until day 45 post induction.
# VIP, VIP-SSM (each, 0.5, 1.0 & 5.0 nmol), empty micelles, and buffer were injected into the tail vein on day 22 or day 34 post-CIA induction. Clinical arthritis score (CAS) and hind paw thickness (PT) were recorded until day 45 post-CIA induction. Systemic arterial pressure (SAP) was recorded by tail cuff in restrained mice. […] CAS reductions were similar to PT after treatment with α-helix VIP- and aqueous VIP-treated mice.
# [3] = system: mice with collagen-induced arthritis (CIA); details: repeated intraperitoneal administration, 5.0 nmol, Delgado et al. 2001; cited from earlier work
# [4] = system: man; details: infusion in man for 10 hours; cited from earlier work
substance,measurement,setting,value
vasoactive intestinal peptide [VIP],effects on the arteriolar diameter,[1],no significant effects
same,hind paw thickness (PT) increase,[2]; 0.5 nmol dose,85.63±6.20%
same,hind paw thickness (PT) increase,[2]; 1.0 nmol dose,78.66±6.44%
same,progression of CIA (PT and CAS data),"[2]; 1.0 nmol, treated on day 22",78.09%
same,progression of CIA (PT and CAS data),"[2]; 1.0 nmol, treated on day 34",96.55%
same,hind paw thickness (PT) increase,[2]; 5.0 nmol dose,46.69±6.92%
same,progression of CIA (PT and CAS data),"[2]; 5.0 nmol, treated on day 22",56.37%
same,progression of CIA (PT and CAS data),"[2]; 5.0 nmol, treated on day 34",69.71%
same,effect on CIA,[3],ameliorates CIA
same,increase of forearm blood flow,[4],270%
same,reduction of total peripheral resistance,[4],30%
